Test results as given in paper PMC8359193, “Summary of reference chemicals evaluated by the fish short‐term reproduction assay, OECD TG229, using Japanese Medaka, Oryzias latipes” (Journal of Applied Toxicology, 2021).
“Also recorded” adds a separate entry of the source. Read-outs that look alike come from different tables or passages of the source.

Tests used:
[1] = system: Japanese medaka (Oryzias latipes); assay: Fish short-term reproduction assay (FSTRA, OECD TG229), 21-day flow-through exposure; conditions: for GSI Female / HSI Female / Length Female / Weight Female / GSI Male / HSI Male / Length Male / Weight Male: at completion of exposure; for Fertility rate (%) / Mortality (%) Female / Mortality (%) Male / Number of fertilized eggs / Number of total eggs / SSC Female / SSC Male / VTG (ng/mg of liver) Female / VTG (ng/mg of liver) Male: 21 days
Description: The experimental studies on the FSTRA for the 16 chemicals were conducted in two laboratories in Japan, the National Institute for Environmental Studies (NIES, Lab‐1) and the Institute of Environmental Ecology, IDEA Consultants Inc. (Lab‐2), in accordance with OECD TG229 (OECD, [2012a]) (Table 1).
The NIES‐R strain of Japanese medaka (O. latipes), one of the orange‐red varieties, was used in all the 16 chemical studies. For the studies, healthy and mature male and female medakas at 16 ± 2 weeks old were selected from a single‐stock population, which were bred within the test facilities. The test fish were maintained in conditions similar to the assay for at least 7 days, and spawning status was checked during the acclimation period. On the day the chemical exposure commenced, to ensure balanced distribution of test fish between the treatment groups for the reproductive status of the fish, the replicate vessels (fish tanks), with each containing three male and female medaka, were distributed to each treatment and control group, for example, by a randomized block design based on the number of fertilized eggs laid in the last 5–7 days during the acclimation, in each assay.
The water solubility of the test chemical was also taken into consideration when deciding the highest test concentration. To set the lower concentrations, a spacing factor ranging between two and five was used. All assays included a dilution water control (DWC).
Test solutions at the selected concentrations were prepared by diluting a stock solution, which was prepared by an adequate method depending on the physicochemical properties of the test chemicals, for example, by simply mixing the test chemical in dilution water by stirring and/or sonicating for an appropriate time or by using a solid–liquid saturator. In the two laboratories, flow‐through exposure systems, in which a series of test solutions at the target concentrations can be continuously prepared and delivered to test vessels at controlled flow rates (Haselman et al., [2016]; Watanabe et al., [2017]), were used for the exposure experiments.
In the FSTRA, three mature adult males and females in a test vessel were exposed together to the test chemicals in flow‐through condition for 3 weeks. In all the assays, each treatment group, including the DWC group, contained four replicate tanks. During the exposure period, the fish were fed a sufficient amount of live brine shrimp nauplii (newly hatched Artemia sp.) for daily spawning ad libitum. Fecal material in the tanks was appropriately removed by siphoning after feeding. Water temperature of test solutions was recorded for at least one vessel in each treatment and control group every day and for all vessels at least once a week. Furthermore, dissolved oxygen and pH of test solutions were measured for all test vessels at least once a week. Mortality and abnormal behavior and appearance in the fish exposed to test chemicals were daily observed, and any fish that died were removed from the tank as soon as possible. To assess the reproductive status, all eggs females spawned were collected every day. At the completion of the chemical exposure, surviving fish in each tank were sampled.
The eggs females released on the bottom of the tank were collected by siphoning, and the egg clutches still on female abdomen were carefully picked from the body of the females captured using a small net. All the eggs collected were microscopically observed and separately counted for fertilized and unfertilized.

medaka Esr1 (mEsr1) = biological target: T1, medaka Esr1 (mEsr1) (Oryzias latipes, UniProt P50241); assay: Medaka Esr1 reporter gene assay (RGA), antagonist assay with 1 nM E2, HEK293 cells; assay type: cell-based, Japanese medaka (Oryzias latipes)
T1 construct: expressed in transfected cells; host or cells: HEK293 (human embryonic kidney cells), transient transfection with FuGENE HD
T1 sequence (P50241 1-620): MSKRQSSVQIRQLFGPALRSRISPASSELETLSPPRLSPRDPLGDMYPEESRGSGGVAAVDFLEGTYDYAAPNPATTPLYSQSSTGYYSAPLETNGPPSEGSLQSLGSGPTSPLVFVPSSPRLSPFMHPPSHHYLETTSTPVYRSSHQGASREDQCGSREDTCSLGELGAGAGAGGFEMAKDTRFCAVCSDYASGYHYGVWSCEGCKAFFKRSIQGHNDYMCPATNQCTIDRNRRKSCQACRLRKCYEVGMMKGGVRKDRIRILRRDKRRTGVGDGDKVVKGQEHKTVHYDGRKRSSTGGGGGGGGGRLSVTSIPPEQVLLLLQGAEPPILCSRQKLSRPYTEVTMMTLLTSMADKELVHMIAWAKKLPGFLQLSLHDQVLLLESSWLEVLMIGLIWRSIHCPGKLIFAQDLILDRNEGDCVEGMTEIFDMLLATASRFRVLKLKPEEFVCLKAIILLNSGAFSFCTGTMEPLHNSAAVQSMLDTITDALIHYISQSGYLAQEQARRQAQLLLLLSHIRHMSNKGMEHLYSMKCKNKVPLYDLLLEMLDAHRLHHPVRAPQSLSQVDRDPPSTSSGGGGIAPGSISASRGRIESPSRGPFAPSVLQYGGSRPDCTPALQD
Description: To support interpretation of the biological effects observed in the FSTRA studies, in vitro RGAs using medaka Esr1 (mEsr1) and medaka ARβ (mARβ) were performed for the 16 test chemicals. In the present study, Esr1 and ARβ, which are ancestral subtypes among Esrs and ARs in Japanese medaka, were selected based on the phylogenetical analyses of Esr and AR with each receptor RGAs (Ogino et al., [2016], [2018]; Tohyama et al., [2015]).
The mEsr1 RGA consisting of agonist and antagonist assays were performed according to the methods previously reported (Katsu et al., [2010]; Lange et al., [2012]; Miyagawa et al., [2014]). Briefly, human embryonic kidney cells 293 (HEK293), precultured, were seeded in 96‐well plates at 15,000 cells/well with 200 μl of culture medium, phenol‐red‐free Dulbecco's Modified Eagle's medium (ThermoFisher Scientific K.K., Tokyo, Japan) supplemented with 2‐mM L‐glutamine and 10% charcoal/dextran‐treated fetal bovine serum (Hyclone, UT, USA), and then incubated for 24 h in 5% CO2 at 37°C. After the 24‐h incubation, 20 μl of test medium containing 40 ng of medaka Esr1/pcDNA3.1, 80 ng of ERE‐TK‐Luc, and 20 ng of pRL‐TK‐Rlu and 1.2 μL of transfection reagent FuGENE HD (Promega, WI, USA) were added into each well. The assay plates were incubated for another 4 h in order to transfect the three vectors into the HEK293 cells. After the vectors were successfully transfected, in agonist assay, 24 μl of concentrated test chemical solution was applied to the test medium in the plate wells. […] After chemical treatment for 40 h, luciferase activity of the cells was measured, and the promoter activity was calculated as firefly (Photinus pyralis)‐/sea pansy (Renilla reniformis)‐luciferase activity in each well. The luciferase activities were quantified by a chemiluminescence assay with Dual‐Luciferase Reporter Assay System (Promega) in accordance with the manufacturer's instructions, and luminescence intensity of firefly and sea pansy luciferin was measured using a luminometer, TriStar LB941 (Berthold Technology, Oak Ridge, TN, USA).
(§1) Effect concentrations, that is, EC50 (a half maximal effective concentration) in the agonist assay and IC50 (a half maximal inhibitory concentration) in the antagonist assay, were estimated by nonlinear curve fitting (e.g., three parameters logistic regression curve) using GraphPad Prism (GraphPad Software Inc., La Jolla, CA, USA).

medaka ARβ (mARβ) = medaka ARβ (mARβ) (Oryzias latipes, UniProt D1MV73); assay: Medaka ARβ reporter gene assay (RGA), agonist assay, HepG2 cells; assay type: cell-based, Japanese medaka (Oryzias latipes); conditions: mARβ RGA agonist assay; ND = no significant response even at the highest assay concentration (in parentheses)
Sequence of medaka ARβ (mARβ) (D1MV73 entry or part of it): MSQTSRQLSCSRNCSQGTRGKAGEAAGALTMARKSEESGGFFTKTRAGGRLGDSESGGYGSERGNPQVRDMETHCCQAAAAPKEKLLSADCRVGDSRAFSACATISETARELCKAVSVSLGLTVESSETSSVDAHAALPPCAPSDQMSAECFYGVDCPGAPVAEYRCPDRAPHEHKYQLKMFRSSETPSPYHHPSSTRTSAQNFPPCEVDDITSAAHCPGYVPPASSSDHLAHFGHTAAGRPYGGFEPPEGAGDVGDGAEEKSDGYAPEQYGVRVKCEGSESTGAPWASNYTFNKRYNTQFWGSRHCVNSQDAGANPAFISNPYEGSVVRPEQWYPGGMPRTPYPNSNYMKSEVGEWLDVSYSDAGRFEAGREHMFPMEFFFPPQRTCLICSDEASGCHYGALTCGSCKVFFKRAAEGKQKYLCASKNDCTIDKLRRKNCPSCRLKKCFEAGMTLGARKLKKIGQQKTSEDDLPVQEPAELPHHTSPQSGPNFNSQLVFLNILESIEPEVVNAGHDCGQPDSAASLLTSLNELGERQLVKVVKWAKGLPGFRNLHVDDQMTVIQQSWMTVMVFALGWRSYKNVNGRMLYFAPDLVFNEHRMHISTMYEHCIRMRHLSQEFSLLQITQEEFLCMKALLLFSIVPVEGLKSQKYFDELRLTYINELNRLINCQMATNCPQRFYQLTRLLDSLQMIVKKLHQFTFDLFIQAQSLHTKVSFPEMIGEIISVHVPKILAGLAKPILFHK
Description: To support interpretation of the biological effects observed in the FSTRA studies, in vitro RGAs using medaka Esr1 (mEsr1) and medaka ARβ (mARβ) were performed for the 16 test chemicals.
For the assays, human liver cancer cell line, HepG2, was used as the host cells, and mARβ/pcDNA3.1, MMTV‐Luc, and pRL‐TK‐Rlu were used as mARβ expression vector, reporter vector, and internal control vector, respectively.
as §1

CCCN(CCOc1c(Cl)cc(Cl)cc1Cl)C(=O)n1ccnc1 [PCL, Prochloraz]
effect on fertility rate, in words ([1]; 21-day exposure): significant decrease; also recorded: significant reduction
GSI Female ([1]; measured conc. 20.6 μg/L): 10.2%
HSI Female ([1]; measured conc. 20.6 μg/L): 4.2%
Length Female ([1]; measured conc. 20.6 μg/L): 35.0 mm
Weight Female ([1]; measured conc. 20.6 μg/L): 547 mg
GSI Female ([1]; measured conc. 44.9 μg/L): 11.1%
HSI Female ([1]; measured conc. 44.9 μg/L): 4.5%
Length Female ([1]; measured conc. 44.9 μg/L): 36.5 mm
Weight Female ([1]; measured conc. 44.9 μg/L): 591 mg
LOEC for decrease of VTG in females ([1]; hepatic VTG, 21-day exposure, measured conc.): 44.9 µg/L
GSI Male ([1]; measured conc. 20.6 μg/L): 1.26%
HSI Male ([1]; measured conc. 20.6 μg/L): 1.7%
Length Male ([1]; measured conc. 20.6 μg/L): 34.4 mm
Weight Male ([1]; measured conc. 20.6 μg/L): 408 mg
GSI Male ([1]; measured conc. 44.9 μg/L): 1.16%
HSI Male ([1]; measured conc. 44.9 μg/L): 1.7%
Length Male ([1]; measured conc. 44.9 μg/L): 34.3 mm
Weight Male ([1]; measured conc. 44.9 μg/L): 415 mg
Fertility rate (%) ([1]; measured conc. 20.6 μg/L): 94%
Mortality (%) Female ([1]; measured conc. 20.6 μg/L): 0%
Mortality (%) Male ([1]; measured conc. 20.6 μg/L): 0%
Number of fertilized eggs ([1]; measured conc. 20.6 μg/L): 37
Number of total eggs ([1]; measured conc. 20.6 μg/L): 39 ± 4.5 /female/day
SSC Female ([1]; measured conc. 20.6 μg/L): 0 ± 0
SSC Male ([1]; measured conc. 20.6 μg/L): 103 ± 15
VTG (ng/mg of liver) Female ([1]; measured conc. 20.6 μg/L): 289 ± 57 ng/mg of liver
VTG (ng/mg of liver) Male ([1]; measured conc. 20.6 μg/L): 2.6 ± 2.0 ng/mg of liver
Fertility rate (%) ([1]; measured conc. 44.9 μg/L): 84%
Mortality (%) Female ([1]; measured conc. 44.9 μg/L): 0%
Mortality (%) Male ([1]; measured conc. 44.9 μg/L): 0%
Number of fertilized eggs ([1]; measured conc. 44.9 μg/L): 28
Number of total eggs ([1]; measured conc. 44.9 μg/L): 34 ± 5.5 /female/day
SSC Female ([1]; measured conc. 44.9 μg/L): 0 ± 0
SSC Male ([1]; measured conc. 44.9 μg/L): 93 ± 13
VTG (ng/mg of liver) Female ([1]; measured conc. 44.9 μg/L): 173 ± 53 ng/mg of liver
VTG (ng/mg of liver) Male ([1]; measured conc. 44.9 μg/L): 1.2 ± 1.2 ng/mg of liver
effect on fecundity (number of total eggs), in words ([1]; within the test concentrations, 21-day exposure): No effect
IC50 (medaka Esr1 (mEsr1)): > 10 µM

C[C@]12CC(=O)[C@H]3[C@@H](CCC4=CC(=O)CC[C@@]43C)[C@@H]1CC[C@@H]2O [11KT, 11‐ketotestosterone]
IC50 (medaka Esr1 (mEsr1); mEsr1 RGA antagonist assay, 1 nM E2-mediated transactivation, ND = no significant response even at the highest assay concentration (in parentheses), read-out: Antagonist assay, IC50, Medaka Esr1): > 100 µM
EC50 (medaka ARβ (mARβ)): 0.0027 µM
